# From the supplement of paper PMC10290057
# Counter-ions that a name gives are not always drawn.
# Tested on: HCT116
# Assay: efficacy (fitted maximal change in viability relative to DMSO control); higher = less cytotoxic (negative = loss of viability)
# Conditions: 48 h
# 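Note: Luminescence-based viability readout, five doses per compound, normalized against on-plate DMSO and empty-well controls, followed by dose-response curve fitting for every drug.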
smiles,measurement,value
C[C@H](CCC(=O)O)[C@H]1CCC2C3C[C@H](O)[C@@H]4C[C@H](O)CC[C@]4(C)C3CC[C@@]21C (stereo partly specified) [Hyodeoxycholic acid],efficacy,5.2%
Cc1cc(C)c2c(c1)[C@@H](N(Cc1cc(C(F)(F)F)cc(C(F)(F)F)c1)c1nnn(C)n1)CCCN2C[C@H]1CC[C@H](C(=O)O)CC1,efficacy,-31.2%
Oc1nc(-c2ccc(C(F)(F)F)cc2)nc2c1CSCC2 [NVP-XAV-939],efficacy,-13.5%
C[C@]\12CCC(=O)\C=C1CC[C@H]3[C@@H]4CC[C@](O)(C(=O)CO)[C@@]4(C)C[C@H](O)[C@H]23 [Hydrocortisone],efficacy,-23%
CCCn1c(=O)c2[nH]c(-c3cnn(Cc4cccc(C(F)(F)F)c4)c3)nc2n(CC)c1=O [CVT-6883],efficacy,-14.4%
O=C(Cc1ccccc1)Nc1nnc(CCSCCc2nnc(NC(=O)Cc3ccccc3)s2)s1 [BPTES],efficacy,-25%
CNc1nc(C)nc(N[C@H]2CCC[C@@H](C(=O)NCc3ccc(C#N)cc3C(F)(F)F)C2)n1,efficacy,-20.5%
CC(C)[C@H](O)C(=O)N[C@@H](C)C(=O)N[C@@H]1C(=O)N(C)CCc2ccccc21 [Semagacestat],efficacy,-9.53%
CC/C(=C(/c1ccc(/C=C/C(=O)O)cc1)c1ccc2[nH]ncc2c1)c1ccc(F)cc1Cl [Brilanestrant],efficacy,-35.5%
CC1(N)CCN(c2cnc(-c3cccc(Cl)c3Cl)c(N)n2)CC1 [SHP-099],efficacy,-5.94%
CN[C@@H]1[C@@H](O)[C@@H](O[C@@H]2[C@@H](O)[C@H](O[C@H]3O[C@H](CN)[C@@H](O)[C@H](O)[C@H]3O)[C@@H](N)C[C@H]2NC(=O)C(O)CN)OC[C@]1(C)O.O=S(=O)(O)O (stereo partly specified) [Isepamicin sulfate],efficacy,-15.7%
CNC(=O)c1ccc(N2C(=S)N(c3ccc(C#N)c(C(F)(F)F)c3)C(=O)C23CCC3)cc1F [RD-162],efficacy,-28.5%
N=C(N)Nc1ccc(C(=O)Oc2ccc3cc(C(=N)N)ccc3c2)cc1 [Nafamostat mesilate],efficacy,-24.8%
COc1ccc(CC2SC(=O)NC2=O)cc1C(=O)NCc1ccc(C(F)(F)F)cc1 (stereo unspecified) [MK-767],efficacy,-17.2%
C[S+](=O)([O-])Oc1ccc2c(NC(N)=O)c(C(=O)c3ccc(Cl)cc3Cl)oc2c1 [Lirimilast],efficacy,-17.7%
CC(C)(C(=O)NCC(F)(F)C(F)(F)F)C(=O)N[C@@H]1C(=O)Nc2ccccc2-c2ccccc21,efficacy,-10.6%
CC1=NN(c2ccc(C(=O)O)cc2)C(=O)/C1=C/c1ccc(-c2cc(C)c(C)cc2[N+](=O)[O-])o1 [C-646],efficacy,-21%
CN(C)C(=N)NC(=N)N [Metformin],efficacy,-21.8%
CC1(C)CC(=O)c2c(C(F)(F)F)nn(-c3ccc(C(N)=O)c(NC4CCC(O)CC4)c3)c2C1 (stereo unspecified) [SNX-2112],efficacy,-53.8%
O=NN(CCCl)C(=O)NCCCl [Carmustine],efficacy,-15.1%
COc1ccc(Cc2ccc(NC(N)=O)cc2)cc1-c1cccc(Cl)c1,efficacy,-74.8%
CCN(C(=O)c1ccccc1OC)c1cc2c(cc1N1CCNC[C@H]1C)n(C)c(=O)n2C [GSK9311],efficacy,-8.64%
CN1CCN(C)C(=O)C1C2=CC=C(N/C3=N/C(=C\N(C)C3=O)C4=C(C)C(=CC=C4)NC(=O)C5=CC6=C(CCCC6)S5)C=C2 (racemic) [GDC-0834 racemate],efficacy,-21.2%
NC(CC1c2ccccc2Oc2ccccc21)(C(=O)O)C1CC1C(=O)O (stereo unspecified),efficacy,-10.8%
CCc1cc(Nc2nccc(-c3c(-c4ccc(OC)c(C(=O)Nc5c(F)cccc5F)c4)nc4ccccn34)n2)c(OC)cc1N1CCC(N2CCN([S+](C)(=O)[O-])CC2)CC1,efficacy,-21%
CC(=O)[C@H]1CC[C@H]2[C@@H]3C/C=C4/C[C@@H](O)CC[C@]4(C)[C@H]3CC[C@]12C [Pregnenolone],efficacy,-6.65%
CC[S+](=O)([O-])N1CCN(c2ccc(Nc3ncc(C(N)=O)c(NC4CC4)n3)cc2)CC1 [Cerdulatinib],efficacy,-88.9%
Cn1cc(-c2ccc(-c3cncc(Cl)c3N3CCC4(CCNC4=O)CC3)cc2)cn1,efficacy,-49.2%
CONC(=O)c1ccccc1Nc1cc(Nc2cc(C)nn2C(C)C)ncc1Cl,efficacy,-40.7%
CN(CC#C)C/C1=C/C2=CC=CC=C2OC3=CC=CC=C13 [Omigapil],efficacy,-34.5%
C/C(O)=C(\C#N)C(=O)Nc1ccc(C(F)(F)F)cc1 [Teriflunomide],efficacy,-52.2%
NC(=O)c1cc(F)cc2c1C(=O)N(C1CCN(C3CCC(F)(F)CC3)CC1)C2 [NMS-P118],efficacy,-18.7%
CN(C)[C@H]\1[C@@H]2C[C@H]3C(=C(O)\[C@]2(O)C(=O)\C(=C1O)C(N)=O)/C(=O)C4=C(O)C=CC=C4[C@@]3(C)O [Tetracycline hydrochloride],efficacy,8.73%
COC1=CC=CC=C1C2=CC=CC(=C2)C/3=C(O)/C4=CC(=C(Cl)C=C4NC3=O)C#N [FASN MRK],efficacy,-12.8%
N#Cc1ccc(N(Cc2ccc(Br)cc2)n2cnnc2)cc1 [YM-511],efficacy,-14.3%
C[S+]([O-])(=O)C1=CC=C(C=C1)C/2=C(/C(=O)OC2)C3=CC=CC=C3 [Rofecoxib],efficacy,-13.7%
COCCOc1ccc(N2CCN(CCn3ncc4c3nc(N)n3nc(-c5ccco5)nc43)CC2)cc1 [Preladenant],efficacy,-16%
C[N]1N=C(C)C2=C1OC(=C(/C#N)C2C3=CC=C(C=C3)C(F)(F)F)/N (stereo unspecified) [BQU-57],efficacy,-30.8%
O=C1\C=C/C=C2/[C@H]3CNC[C@H](C3)CN12 [Cytisine],efficacy,-21.9%
O=C(O)CCCCN(CCc1ccccc1OCc1ccc(CCc2ccccc2)cc1)Cc1ccc(C(=O)O)cc1 [Cinaciguat],efficacy,-11.7%
CC(=O)OCC(CCn1cnc2cnc(N)nc21)COC(C)=O [Famciclovir],efficacy,-14.2%
CC1CNc2c(cccc2[S+](=O)([O-])N[C@@H](CCCNC(=N)N)C(=O)N2CC[C@@H](C)C[C@@H]2C(=O)O)C1 (stereo partly specified) [Argatroban],efficacy,-15.9%
CCOC(=O)c1ccc(OC(=O)CCCCCNC(=N)N)cc1 [Gabexate mesilate],efficacy,7.86%
CCC(=O)O[C@@]1([C@@H](C)C[C@H]2[C@@H]3CCC/4=C/C(=O)/C=C\[C@]4(C)[C@@]3(F)[C@@H](O)C[C@]12C)C(=O)CCl [Clobetasol propionate],efficacy,-57.1%
CC(C)n1cc(-c2ccc3c(c2)N(C)CC3)c2c(N[S+](=O)([O-])c3ccn(C)n3)ccnc21,efficacy,-24.7%
Cc1cn[nH]c1 [Fomepizole],efficacy,-18.8%
Cc1ccc(O)c(C(CCN(C(C)C)C(C)C)c2ccccc2)c1.Cl (stereo unspecified) [Tolterodine tartrate],efficacy,-19.8%
c1ccc2[nH]c(-c3cscn3)nc2c1 [Thiabendazole],efficacy,-7.02%
Nc1c2c(nc3ccccc13)CCCC2 [Tacrine hydrochloride],efficacy,-50.9%
CC(C)[C@H](N)C(=O)OCCOC[N]1C=NC2=C1\N=C(N)/NC2=O [Valaciclovir],efficacy,8.42%
Clc1cccc(-n2nnnc2NCc2ccccc2Oc2ccccn2)c1Cl,efficacy,-32%
COc1c(N2C[C@@H]3CCCN[C@@H]3C2)c(F)cc2c(=O)c(C(=O)O)cn(C3CC3)c12.Cl.O [Moxifloxacin hydrochloride],efficacy,-9.48%
N=C1S/C(=C\c2ccc(-c3ccc4c(c3)C(=O)NC4=O)o2)C(=O)N1c1ccc(Br)cc1 [Bioymifi],efficacy,-15.3%
CCOC(=O)c1ccc(C#Cc2ccc3c(c2)C(C)(C)CCS3)nc1 [Tazarotene],efficacy,-38.2%
C/C=C(/C(=C/C)c1ccc(O)cc1)c1ccc(O)cc1 [Dienestrol],efficacy,-63.7%
N#CC1(c2ccc(NC(=O)c3cccnc3NCc3ccncc3)cc2)CCCC1 [Apatinib],efficacy,-32.7%
CCc1c(C(=O)NNC(=O)[C@@H](O)c2cc(F)cc(F)c2)ccc(O)c1C,efficacy,-5.46%
Nc1ncnc2c1ncn2[C@@H]1O[C@H](CO)[C@@H](O)[C@@H]1O [Vidarabine],efficacy,-11.4%
CC1(C)[C@@H](O)CC[C@@]2(C)[C@H]1CC[C@]3(C)[C@@H]2C(=O)\C=C/4[C@@H]5C[C@](C)(CC[C@]5(C)CC[C@@]34C)C(O)=O [Enoxolone],efficacy,-35.4%
FC1=C(C=C(C/C2=N/NC(=O)C3=C2C=CC=C3)C=C1)C(=O)N4CCN(CC4)C(=O)C5CC5 [Olaparib],efficacy,-38.8%
C[C@H](NC(=O)Cc1cc(F)cc(F)c1)C(=O)N[C@H](C(=O)OC(C)(C)C)c1ccccc1 [GSI-IX],efficacy,26%
CC(=O)NCCCS(=O)(=O)[O-] [ACAMPROSATE CALCIUM],efficacy,8.04%
CCOC(=O)C/1=C(C)/NC(=S)NC1C2=CC=CC(=C2)O (stereo unspecified) [Monastrol],efficacy,-52.1%
CC(C)NC(=O)N1CC[C@@H](C1)NC/2=N/C3=C(C=CC(=C3)F)N(CC(F)F)C4=C2C=C(Cl)C=C4 [NVS-PAK1-1],efficacy,-21.2%
COc1cc(C[C@@H](CO)[C@H](CO)Cc2ccc(O)c(OC)c2)ccc1O [Secoisolariciresinol],efficacy,9%
CN(C)c1ccc2nc3ccc(N(C)C)cc3[s+]c2c1.[Cl-] [Methylene blue],efficacy,-96.6%
CCOC(=O)C1=CCCCC1[S+](=O)([O-])Nc1ccc(F)cc1Cl (stereo unspecified) [TAK-242],efficacy,-34.7%
CC(C)=CCC/C(C)=C/CC/C(C)=C/CSc1ccccc1C(=O)O [Salirasib],efficacy,-28.8%
O=C(O)CNC(=O)c1nc(Cl)c2ccccc2c1O [FG-2216],efficacy,-7.52%
CC(C)(N)C(=O)N[C@H](COCc1ccccc1)C(=O)N1CCC2(CC1)CN([S+](C)(=O)[O-])c1ccccc12 [Ibutamoren mesilate],efficacy,-50.7%
N\C1=N\C2=C(N=C[N]2COCCO)C(=O)N1 [Aciclovir],efficacy,-8.84%
CCC(=O)NCC[C@@H]1CCc2ccc3c(c21)CCO3 [Ramelteon],efficacy,-25.2%
CCC(=O)NC[C@H](Cc1ccc(OCCc2nc(-c3ccccc3)oc2C)cc1)N/C(C)=C\C(=O)c1ccc(C(F)(F)F)cc1 [GW-6471],efficacy,-30.2%
O=C1Nc2ccccc2/C1=C1\Nc2ccccc2C1=O [Indirubin],efficacy,-9.8%
C[C@]1(c2nc3c(C(N)=O)cccc3[nH]2)CCCN1 [Veliparib],efficacy,-31.3%
CN1C(=O)N(c2cc(Cl)cc(Cl)c2)C(=O)[C@]12CN(Cc1cc(C(=O)O)cs1)C[C@H]2c1ccc(C#N)cc1,efficacy,-6.34%
